Patent US20180028516A1, “METHODS AND DEVICES FOR THE TREATMENT OF OCULAR DISEASES IN HUMAN SUBJECTS” (CLEARSIDE BIOMEDICAL, INC., priority 2012, published 2018)
“Also recorded” adds a separate entry of the source.

Tests used:
[1] = system: model of acute posterior uveitis; experiment: Porcine model of acute posterior uveitis, Hackett/McDonald scoring (Example 12); type: in vivo, pigs
Experimental: In this study, the effects of microneedle injection of triamcinolone acetonide (TA) into the suprachoroidal space (SCS) were compared to the effects of intravitreal (IVT) TA injection in a model of acute posterior uveitis.
Ten weanling pigs had IVT injection with BSS or lipopolysaccharide (LPS) followed 24 hours later with an injection of 0.2 mg or 2.0 mg of TA into the SCS or by IVT. The SCS was accessed using hollow microneedles provided herein. A measurement of each eye under the Hackett/McDonald scoring system was performed on −1, 0, and 3 days after treatment. Pigs were then euthanized, aqueous and vitreous humor collected for cell counts and protein levels, and the eyes were processed for histopathology.

[2] = Ocular histopathology after SCS TA (Example 9); type: in vivo, New Zealand White rabbit
Experimental: (§1) In this study, the ocular tolerability and toxicokinetics of suprachoroidal administration of triamcinolone acetonide (TA) using a microneedle in a GLP study in the New Zealand White rabbit.
(§2) On Day 0, New Zealand White (NZW) rabbits were administered a single bilateral supraehoroidal injection of vehicle, 3.2 mg (80 μL) or 5.2 mg (130 μL) of TA (Triesence®, Alcoa labs) using a 33 g 750 μm microneedle. Clinical observations, slit lamp biomicroscopy with McDonald-Shadduck scoring, intraocular pressure assessment (IOP), electroretinography (ERG), and systemic exposure were assessed up to 26 weeks post-dose. Animals were sacrificed on Day 1, Week 13, and Week 26 for macroscopic observations, ocular toxicokinetics, and ocular histopathology.

[3] = Intraocular pressure and tolerability in porcine uveitis study (Example 13); type: in vivo, domestic weanling pigs
Experimental: Intraocular pressure (IOP) was measured at −6, −4, −1, 0, 1, 2, and 3 days using a TonoVet Tonometer (Care, Finland). In addition, IOP was measured 1, 3, and 6 hours after SCS or IVT injections on Day 0. The measurements were collected without use of topical anesthetic, per manufacturer recommendation. Conditioning of the pigs during acclimation permitted routine ocular examinations and IOP measurements to he done with minimal manual restraint. The tip of the tonometer probe was directed to contact the central cornea and 6 measurements were made consecutively. After the six measurements, the mean IOP was shown on the display providing the IOP that was recorded.

[4] = Ocular safety and histopathology after SCS TA (Example 8); type: in vivo, pigmented rabbits; settings: SCS TA by microneedle, up to 120 days
Experimental: in this study, the total amount of triamcinolone acetonide (TA) delivered into live pigmented rabbit eyes when injected, into the suprachoroidal space using a hollow microneedle or into the vitreous using a standard 30 gauge needle was compared.
On Day 0, pigmented rabbits were injected with either intravitreal or bilateral suprachoroidal injections of 2 mg/100 μl TA Triesence® (TA; Alcon Labs). intravitreal injections were performed using a 30 g needle (Becton-Dickinson) and suprachoroidal injections were performed using a 33 g 750 μm microneedle. The residual amount of TA present in the syringe/needle assembly after injection was determined by RP-HPLC. Clinical observations, slit lamp biomicroscopy with McDonald-Shadduck scoring, intraocular pressure assessment (IOP), electroretinography (ERG), and systemic exposure were assessed up to 120 days post-dose. Animals were sacrificed at 30 minutes, 7 days, 30 days, 60 days, and 120 days for macroscopic observations, ocular toxicokinetics, and ocular histopathology.

[5] = Scotopic electroretinography after SCS TA (Example 9); type: in vivo, New Zealand White rabbit; settings: for Scotopic OdB wave A, Amplitude, Mean / Scotopic OdB wave A, Time, Mean / Scotopic OdB wave B, Amplitude, Mean / Scotopic OdB wave B, Time, Mean: right & left eye
Experimental: as §1, §2

[6] = Electroretinography in porcine uveitis study (Example 13); type: in vivo, domestic weanling pigs; settings: after SCS or IVT injections of 0.2 or 2.0 mg TA
Experimental: With the pigs anesthetized on Days −1, 0 and 3, and pupils dilated with 1% tropicamide HCl. and corneas anesthetized with 0.5% proparacaine HCl, whole field ERGs were recorded from the left eve prior to injections. All animals were dark adapted for 15 minutes prior to ERG. A monopolar contact lens electrode (ERG-jet, La Chaux des Fonds, Switzerland) was placed on the cornea to serve as an active electrode. A subdermal electrode at the lateral canthus served as the indifferent electrode. A Barraquer eyelid speculum was placed to maintain open eyelids and a subdermal needle electrode was inserted dorsally as the ground electrode. EKGs were elicited by brief flashes at 0.33 Hz delivered with a mini-ganzfehl photostimulator (Roland Instruments, Wiesbaden, Germany) at maximal intensity. Twenty responses were amplified, filtered, and averaged (Retiport Electrophysiologic Diagnostic Systems, Rolland Instruments, Wiesbaden, Germany). B wave amplitudes were recorded from each pig at the designated times.

[7] = system: LPS-induced acute posterior uveitis; experiment: Wide-field ocular fundus digital photography in porcine uveitis study (Example 13); type: in vivo, domestic weanling pigs; settings: 3 days after treatment
Text: On study days −1, 0 and 3, with the animals anesthetized arid pupils dilated with tropicamide 1%, the ocular fundus was photographed using standardized illumination and focus by a wide-field digital imaging system (Retcam II, Clarity Medical Systems, Pleasanton, Calif.).

SMILES: CC1(C)O[C@@H]2C[C@H]3[C@@H]4CCC5=CC(=O)C=C[C@]5(C)[C@@]4(F)[C@@H](O)C[C@]3(C)[C@]2(C(=O)CO)O1 [TA, triamcinolone acetonide]
- dose of TA administered to the SCS giving a reduction in inflammation within 3 days, as share of the dose required intravitreally ([1]; 0.2 mg SCS vs 2 mg IVT): 10%
- inflammatory response (mean Hackett/McDonald ocular scores) ([1]; 2 mg TA SCS after LPS, vs vehicle): significant reduction; also recorded: significantly reduces
- adverse effects related to the method of administration or treatments, as assessed by histopathology ([2]; 3.2 or 5.2 mg TA SCS): no adverse effects
- inflammatory cells and test article in the suprachoroidal space (histopathology) ([2]; 3.2 or 5.2 mg TA SCS): observed in the suprachoroidal space of TA-treated animals on Day 1 but not Week 13
- Ciliary process edema, animals with finding ([2]; Day 1, 3.2 mg TA/eye SCS, F): 4
- Corneal epithelial thinning, animals with finding ([2]; Day 1, 3.2 mg TA/eye SCS, F): 2
- Inflammatory cells in SCS, animals with finding ([2]; Day 1, 3.2 mg TA/eye SCS, F): 4
- TA in SCS, animals with finding ([2]; Day 1, 3.2 mg TA/eye SCS, F): 5
- Ciliary process edema, animals with finding ([2]; Day 1, 3.2 mg TA/eye SCS, M): 4
- Conjunctival subepithelial inflammatory cells, animals with finding ([2]; Day 1, 3.2 mg TA/eye SCS, M): 3
- Corneal epithelial thinning, animals with finding ([2]; Day 1, 3.2 mg TA/eye SCS, M): 3
- Inflammatory cells in SCS, animals with finding ([2]; Day 1, 3.2 mg TA/eye SCS, M): 5
- TA in SCS, animals with finding ([2]; Day 1, 3.2 mg TA/eye SCS, M): 5
- Ciliary process edema, animals with finding ([2]; Day 1, 5.2 mg TA/eye SCS, F): 5
- Conjunctival subepithelial inflammatory cells, animals with finding ([2]; Day 1, 5.2 mg TA/eye SCS, F): 3
- Corneal epithelial thinning, animals with finding ([2]; Day 1, 5.2 mg TA/eye SCS, F): 1
- Inflammatory cells in SCS, animals with finding ([2]; Day 1, 5.2 mg TA/eye SCS, F): 5
- Small area of retinal damage (attributed to needle insertion), animals with finding ([2]; Day 1, 5.2 mg TA/eye SCS, F): 1
- TA in SCS, animals with finding ([2]; Day 1, 5.2 mg TA/eye SCS, F): 5
- Ciliary process edema, animals with finding ([2]; Day 1, 5.2 mg TA/eye SCS, M): 4
- Conjunctival subepithelial inflammatory cells, animals with finding ([2]; Day 1, 5.2 mg TA/eye SCS, M): 2
- Corneal epithelial thinning, animals with finding ([2]; Day 1, 5.2 mg TA/eye SCS, M): 3
- Inflammatory cells in SCS, animals with finding ([2]; Day 1, 5.2 mg TA/eye SCS, M): 5
- TA in SCS, animals with finding ([2]; Day 1, 5.2 mg TA/eye SCS, M): 4
- Ciliary process edema, animals with finding ([2]; Week 13, 3.2 mg TA/eye SCS, F): 1
- Dilated choroidal vessels, animals with finding ([2]; Week 13, 3.2 mg TA/eye SCS, F): 1
- Small area of retinal damage (attributed to needle insertion), animals with finding ([2]; Week 13, 3.2 mg TA/eye SCS, F): 1
- Ciliary process edema, animals with finding ([2]; Week 13, 3.2 mg TA/eye SCS, M): 3
- Ciliary process edema, animals with finding ([2]; Week 13, 5.2 mg TA/eye SCS, F): 3
- Ciliary process edema, animals with finding ([2]; Week 13, 5.2 mg TA/eye SCS, M): 1
- Dilated choroidal vessels, animals with finding ([2]; Week 13, 5.2 mg TA/eye SCS, M): 1
- adverse effects, increased IOP, procedural or acute drug toxicity ([3]; TA into the SCS, porcine eyes): no adverse effects, increased IOP, or evidence of procedural or acute drug toxicity
- tolerability of TA delivered to the SCS using microneedles ([3]; up to three days after injection in porcine eyes): tolerated with an acceptable safety profile
- safety profile (inflammation, edema, apoptosis, necrosis) [4]: no marked inflammation, edema, apoptosis, or necrosis at any time point
- Scotopic OdB wave A, Amplitude, Mean ([5]; 3.2 mg TA/eye SCS, Baseline): −133.2 μV
- Scotopic OdB wave A, Time, Mean ([5]; 3.2 mg TA/eye SCS, Baseline): 11.6 ms
- Scotopic OdB wave B, Amplitude, Mean ([5]; 3.2 mg TA/eye SCS, Baseline): 285.8 μV
- Scotopic OdB wave B, Time, Mean ([5]; 3.2 mg TA/eye SCS, Baseline): 42.1 ms
- Scotopic OdB wave A, Amplitude, Mean ([5]; 3.2 mg TA/eye SCS, Day 1): −132 μV
- Scotopic OdB wave A, Time, Mean ([5]; 3.2 mg TA/eye SCS, Day 1): 11.4 ms
- Scotopic OdB wave B, Amplitude, Mean ([5]; 3.2 mg TA/eye SCS, Day 1): 276.5 μV
- Scotopic OdB wave B, Time, Mean ([5]; 3.2 mg TA/eye SCS, Day 1): 47.5 ms
- Scotopic OdB wave A, Amplitude, Mean ([5]; 3.2 mg TA/eye SCS, Week 13): −132.6 μV
- Scotopic OdB wave A, Time, Mean ([5]; 3.2 mg TA/eye SCS, Week 13): 11.7 ms
- Scotopic OdB wave B, Amplitude, Mean ([5]; 3.2 mg TA/eye SCS, Week 13): 299.8 μV
- Scotopic OdB wave B, Time, Mean ([5]; 3.2 mg TA/eye SCS, Week 13): 51.1 ms
- Scotopic OdB wave A, Amplitude, Mean ([5]; 5.2 mg TA/eye SCS, Baseline): −137.3 μV
- Scotopic OdB wave A, Time, Mean ([5]; 5.2 mg TA/eye SCS, Baseline): 11.7 ms
- Scotopic OdB wave B, Amplitude, Mean ([5]; 5.2 mg TA/eye SCS, Baseline): 286.4 μV
- Scotopic OdB wave B, Time, Mean ([5]; 5.2 mg TA/eye SCS, Baseline): 42.3 ms
- Scotopic OdB wave A, Amplitude, Mean ([5]; 5.2 mg TA/eye SCS, Day 1): −130.8 μV
- Scotopic OdB wave A, Time, Mean ([5]; 5.2 mg TA/eye SCS, Day 1): 11.4 ms
- Scotopic OdB wave B, Amplitude, Mean ([5]; 5.2 mg TA/eye SCS, Day 1): 265.7 μV
- Scotopic OdB wave B, Time, Mean ([5]; 5.2 mg TA/eye SCS, Day 1): 43.1 ms
- Scotopic OdB wave A, Amplitude, Mean ([5]; 5.2 mg TA/eye SCS, Week 13): −117.1 μV
- Scotopic OdB wave A, Time, Mean ([5]; 5.2 mg TA/eye SCS, Week 13): 12.6 ms
- Scotopic OdB wave B, Amplitude, Mean ([5]; 5.2 mg TA/eye SCS, Week 13): 264.6 μV
- Scotopic OdB wave B, Time, Mean ([5]; 5.2 mg TA/eye SCS, Week 13): 45.7 ms
- effect on a-wave or b-wave implicit time or amplitude (scotopic ERG) ([5]; 3.2 or 5.2 mg TA SCS): no administration or TA-related effect
- retinal dysfunction (decrease in b wave amplitude) [6]: no evidence of retinal dysfunction
- ocular fundus images (vitreal cloudiness) ([7]; 0.2 mg TA IVT): only slightly improved over vehicle treated eyes
- ocular fundus images (vitreal cloudiness) ([7]; 0.2 mg TA SCS): less vitreal cloudiness and similar to the pre-treatment fundus appearance; also recorded: near pre-treatment appearance
- ocular fundus images (vitreal cloudiness) ([7]; 2.0 mg TA IVT): less vitreal cloudiness and similar to the pre-treatment fundus appearance; also recorded: near pre-treatment appearance
- ocular fundus images (vitreal cloudiness) ([7]; 2.0 mg TA SCS): less vitreal cloudiness and similar to the pre-treatment fundus appearance; also recorded: near pre-treatment appearance
